Experimental data as given in patent US12534450B2, “Methods and compositions for targeting PD-L1” (Aligos Therapeutics, Inc., priority 2021, dated 2026).

target: PD-1/PD-L1 PPI (Homo sapiens, UniProt Q9NZQ7); test: PDL1/PD1 Binding Assay; conditions: PDL1-6×His 0.3 nM, PD1-Fc-Avi-Biotin 2.5 nM, Acceptor/Donor beads, Envision reader
Protocol: Compounds to be tested were serially diluted in DMSO, and further diluted in assay buffer (25 mM Hepes pH 7.4, 150 mM NaCl, 0.005% Tween 20, BSA 0.01%). Diluted compounds were added to the wells with final concentration of DMSO at 1%. PDL1-6×His protein was added to the wells, mixed well with compound. The plates were incubated for 30 min at room temperature. PD1-Fc-Avi-Biotin protein was added to the wells. Final concentration of PDL1 and PD1 protein is 0.3 nM and 2.5 nM, respectively. After a binding time of 30 min at room temperature, Anti-6×His Acceptor beads (final concentration 20 ug/ml) were added to the wells, and the incubation continued for 1 h. Streptavidin Donor beads (final concentration 20 ug/mL) were added at reduced light. The plates were sealed with foil and incubated in the dark for additional 1 h or overnight before reading on an Envision reader. The IC50 values were determined by fitting the curves using a four-parameter equation in Graphpad Prism 8.

PD-1/PD-L1 PPI, sequence (Q9NZQ7 19-238 limits assumed): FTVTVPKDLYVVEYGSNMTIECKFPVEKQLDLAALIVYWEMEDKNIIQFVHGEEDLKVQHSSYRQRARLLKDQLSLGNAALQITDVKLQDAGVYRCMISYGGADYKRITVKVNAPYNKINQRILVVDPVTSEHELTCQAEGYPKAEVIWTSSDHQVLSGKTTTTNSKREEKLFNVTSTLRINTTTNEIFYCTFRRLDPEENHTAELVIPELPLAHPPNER

SMILES | IC50 [nM]
COc1nc(-c2cccc(-c3cccc(NC(=O)c4cn(C)c(=O)n(C)c4=O)c3C)c2C)cc2c1[C@@H](N[C@@H]1CCOC[C@@H]1O)CC2 (single isomer, unassigned) [Compound A-41] | ≤ 10
COc1nc(-c2cccc(-c3cccc(NC(=O)c4ccnn(C)c4=O)c3Cl)c2Cl)cc2c1C(N1CC(C(=O)O)C1)CC2 (single isomer, unassigned) [Compound J-1] | ≤ 10
COc1nc(-c2cccc(-c3cccc(NC(=O)c4ccnn(C)c4=O)c3C)c2Cl)cc2c1[C@@H](NC[C@@H]1CCC(=O)N1)CC2 [Compound A-47] | ≤ 10
COc1nc(-c2cccc(-c3cccc(NC(=O)c4cn(C)c(=O)n(C)c4=O)c3C)c2F)cc2c1[C@H](N[C@@H]1CCOC[C@@H]1O)CC2 (single isomer, unassigned) [Compound A-35] | ≤ 10
COc1nc(-c2cccc(-c3cccc(NC(=O)c4cn(C)c(=O)n(C)c4=O)c3F)c2Cl)cc2c1[C@H](N[C@@H]1CCOC[C@@H]1O)CC2 (single isomer, unassigned) [Compound A-36] | ≤ 10
COc1nc(-c2cccc(-c3cccc(NC(=O)c4cn(C)c(=O)n(C)c4=O)c3Cl)c2F)cc2c1[C@H](N[C@@H]1CCOC[C@@H]1O)CC2 (single isomer, unassigned) [Compound A-32] | ≤ 10
COc1nc(-c2cccc(-c3cccc(NC(=O)c4cn(C)c(=O)n(C)c4=O)c3F)c2C)cc2c1[C@H](N[C@@H]1CCOC[C@@H]1O)CC2 (single isomer, unassigned) [Compound A-37] | ≤ 10
COc1nc(-c2cccc(-c3cccc(NC(=O)c4cn(C)c(=O)n(C)c4=O)c3C)c2C)cc2c1[C@H](N[C@@H]1CCOC[C@@H]1O)CC2 (single isomer, unassigned) [Compound A-34] | ≤ 10
COc1nc(-c2cccc(-c3cccc(NC(=O)c4cn(C)c(=O)n(C)c4=O)c3C)c2Cl)cc2c1[C@@H](N(C[C@@H]1CCC(=O)N1)C(=O)OCc1oc(=O)oc1C)CC2 [Compound F-1] | ≤ 10
CCOC(=O)N(C[C@@H]1CCC(=O)N1)[C@H]1CCc2cc(-c3cccc(-c4cccc(NC(=O)c5cn(C)c(=O)n(C)c5=O)c4C)c3Cl)nc(OC)c21 [Compound E-1] | ≤ 10
COc1nc(-c2cccc(-c3cccc(NC(=O)c4cn(C)c(=O)n(C)c4=O)c3F)c2F)cc2c1[C@H](N[C@@H]1CCOC[C@@H]1O)CC2 (single isomer, unassigned) [Compound A-38] | ≤ 10

Results, then the compound that gave them:

IC50 [nM] | SMILES
≤ 10 | COc1nc(-c2cccc(-c3cccc(NC(=O)c4cn(C)c(=O)n(C)c4=O)c3Cl)c2C)cc2c1[C@@H](NC[C@@H]1CCC(=O)N1)CC2 [Compound A-4]
≤ 10 | COc1nc(-c2cccc(-c3cccc(NC(=O)c4cn(C)c(=O)n(C)c4=O)c3C)c2Cl)cc2c1[C@@H](NC[C@@H]1CCC(=O)N1)CO2 (single isomer, unassigned) [Compound A-19]
≤ 10 | COc1nc(-c2cccc(-c3cccc(NC(=O)c4cn(C)c(=O)n(C)c4=O)c3C)c2Cl)cc2c1[C@H](NC[C@@H]1CCC(=O)N1)CC2 [Compound A-10]
≤ 10 | COc1nc(-c2cccc(-c3cccc(NC(=O)c4cn(C)c(=O)n(C)c4=O)c3Cl)c2Cl)cc2c1C(N1CC3(CCNC3)C1)CC2 (stereo not shown) [Compound G-1]
≤ 10 | COc1nc(-c2cccc(-c3cccc(NC(=O)c4cn(C)c(=O)n(C)c4=O)c3C)c2F)cc2c1[C@H](NC[C@@H]1CCC(=O)N1)CC2 [Compound A-16]
≤ 10 | COc1nc(-c2cccc(-c3cccc(NC(=O)c4cn(C)c(=O)n(C)c4=O)c3C)c2C)cc2c1[C@@H](N1CC(OC)C1)CC2 (single isomer, unassigned) [Compound A-83]
≤ 10 | COc1nc(-c2cccc(-c3cccc(NC(=O)c4cn(C)c(=O)n(C)c4=O)c3Cl)c2C)cc2c1[C@H](NC[C@@H]1CCC(=O)N1)CC2 [Compound A-12]
≤ 10 | COc1nc(-c2cccc(-c3cccc(NC(=O)c4cn(C)c(=O)n(C)c4=O)c3F)c2Cl)cc2c1[C@H](NC[C@@H]1CCC(=O)N1)CC2 [Compound A-11]
≤ 10 | COc1nc(-c2cccc(-c3cccc(NC(=O)c4cn(C)c(=O)n(C)c4=O)c3C)c2C)cc2c1[C@H](NC[C@@H]1CCC(=O)N1)CC2 [Compound A-13]
≤ 10 | COc1nc(-c2cccc(-c3cccc(NC(=O)c4cn(C)c(=O)n(C)c4=O)c3F)c2C)cc2c1[C@H](NC[C@@H]1CCC(=O)N1)CC2 [Compound A-14]
≤ 10 | COc1nc(-c2cccc(-c3cccc(NC(=O)c4cn(C)c(=O)n(C)c4=O)c3Cl)c2F)cc2c1[C@H](NC[C@@H]1CCC(=O)N1)CC2 [Compound A-15]
≤ 10 | COc1nc(-c2cccc(-c3cccc(NC(=O)c4cn(C)c(=O)n(C)c4=O)c3Cl)c2Cl)cc2c1[C@@H](N1CC(OC)C1)CC2 (single isomer, unassigned) [Compound A-24]
≤ 10 | COc1nc(-c2cccc(-c3cccc(NC(=O)c4cn(C)c(=O)n(C)c4=O)c3Cl)c2Cl)cc2c1[C@@H](N1CC(O)C1)CC2 (single isomer, unassigned) [Compound A-26]

system: PD-1/PD-L1 interaction; test: PD-1/PD-L1 NFAT Reporter Assay (co-culture of Jurkat T cells overexpressing PD-1 and PD-L1 expressing CHO cells); assay type: cell-based; conditions: Homo sapiens, Jurkat, 6 h, co-culture 6 hrs at 37° C., NFAT-mediated luciferase activity
Protocol: Blocking the PD-1/PD-L1 interaction will release the inhibitory signal and results in TCR signaling and NFAT-mediated luciferase activity.
CHO cells expressing surface-bound anti-CD3 antibodies and PD-L1 were first seeded overnight and treated with the compounds. Jurkat cells overexpressing PD-1 and a luciferase construct under NFAT promoter were then immediately seeded on the monolayer of CHO cells. The co-culture was then incubated for 6 hrs at 37° C. Luciferase activity was assessed by adding the ONE-Glo reagent and measuring luminescence with a plate reader. EC50 values were determined from the fit of the dose-response curves.

SMILES | EC50 [nM]
COc1nc(-c2cccc(-c3cccc(NC(=O)c4cn(C)c(=O)n(C)c4=O)c3C)c2C)cc2c1[C@@H](N[C@@H]1CCOC[C@@H]1O)CC2 (single isomer, unassigned) [Compound A-41] | ≤ 10
COc1nc(-c2cccc(-c3cccc(NC(=O)c4ccnn(C)c4=O)c3Cl)c2Cl)cc2c1C(N1CC(C(=O)O)C1)CC2 (single isomer, unassigned) [Compound J-1] | ≤ 10
COc1nc(-c2cccc(-c3cccc(NC(=O)c4ccnn(C)c4=O)c3C)c2Cl)cc2c1[C@@H](NC[C@@H]1CCC(=O)N1)CC2 [Compound A-47] | ≤ 10
COc1nc(-c2cccc(-c3cccc(NC(=O)c4cn(C)c(=O)n(C)c4=O)c3F)c2F)cc2c1[C@@H](NC[C@@H]1CCC(=O)N1)CC2 [Compound A-9] | 10 to 100
COc1nc(-c2cccc(-c3cccc(NC(=O)c4nn(C)c(=O)n(C)c4=O)c3C)c2Cl)cc2c1[C@@H](N[C@@H]1CCOC[C@@H]1O)CC2 (single isomer, unassigned) [Compound A-77] | ≤ 10
COc1nc(-c2cccc(-c3cccc(NC(=O)c4cn(C)c(=O)n(C)c4=O)c3Cl)c2Cl)cc2c1C(N[C@H]1CCOC[C@@H]1O)CC2 (stereo partly drawn) [Compound D-8a] | 10 to 100
COc1cc(-c2cccc(-c3cccc(NC(=O)c4cn(C)c(=O)n(C)c4=O)c3Cl)c2Cl)cc2c1CC(NC[C@@H]1CCC(=O)N1)C2 (stereo partly shown) [Compound A-48] | 100 to 1000
COc1nc(-c2cccc(-c3cccc(NC(=O)c4cn(C)c(=O)n(C)c4=O)c3Cl)c2C#N)cc2c1[C@@H](N[C@@H]1CCOC[C@@H]1O)CC2 (single isomer, unassigned) [Compound A-73] | 10 to 100
COc1nc(-c2cccc(-c3cccc(NC(=O)c4nn(C)c(=O)n(C)c4=O)c3Cl)c2Cl)cc2c1[C@@H](N[C@@H]1CCOC[C@@H]1O)CC2 (single isomer, unassigned) [Compound A-76] | ≤ 10

Continued, values first:

EC50 [nM] | SMILES
≤ 10 | COc1nc(-c2cccc(-c3cccc(NC(=O)c4cn(C)c(=O)n(C)c4=O)c3Cl)c2C)cc2c1[C@@H](NC[C@@H]1CCC(=O)N1)CC2 [Compound A-4]
10 to 100 | COc1nc(-c2cccc(-c3cccc(NC(=O)c4cn(C)c(=O)n(C)c4=O)c3C)c2Cl)cc2c1[C@@H](NC[C@@H]1CCC(=O)N1)CO2 (single isomer, unassigned) [Compound A-19]
10 to 100 | COc1nc(-c2cccc(-c3cccc(NC(=O)c4cn(C)c(=O)n(C)c4=O)c3Cl)c2Cl)cc2c1C(N1CC3(CCNC3)C1)CC2 (stereo not shown) [Compound G-1]
≤ 10 | COc1nc(-c2cccc(-c3cccc(NC(=O)c4cn(C)c(=O)n(C)c4=O)c3Cl)c2Cl)cc2c1C(N1CC3(CNC(=O)C3)C1)CC2 [Compound D-14]
10 to 100 | COc1nc(-c2cccc(-c3cccc(NC(=O)c4cn(C)c(=O)n(C)c4=O)c3C)c2C)cc2c1[C@@H](N1CC(OC)C1)CC2 (single isomer, unassigned) [Compound A-83]
≤ 10 | COc1nc(-c2cccc(-c3cccc(NC(=O)c4nn(C)c(=O)n(C)c4=O)c3Cl)c2Cl)cc2c1[C@H](N1CC3(CN(C(C)=O)C3)C1)CC2 (single isomer, unassigned) [Compound A-71]
10 to 100 | COc1nc(-c2cccc(-c3cccc(NC(=O)c4cn(C)c(=O)n(C)c4=O)c3C)c2Cl)cc2c1C(NCC(=O)N1CCCC1)CC2 [Compound D-13]
10 to 100 | COc1nc(-c2cccc(-c3cccc(NC(=O)c4cn(C)c(=O)n(C)c4=O)c3Cl)c2C#N)cc2c1[C@@H](NC[C@@H]1CCC(=O)N1)CC2 [Compound A-50]
≤ 10 | COc1nc(-c2cccc(-c3cccc(NC(=O)c4cn(C)c(=O)n(C)c4=O)c3C)c2Cl)cc2c1[C@@H](N(C)C[C@@H]1CCC(=O)N1)CC2 [Compound I-1]
> 5000 | COc1nc(-c2cccc(-c3cccc(NC(=O)c4cn(C)c(=O)n(C)c4=O)c3C)c2Cl)cc2c1[C@@H](NC[C@@H]1CCC(=O)N1)C(C)(C)C2 (single isomer, unassigned) [Compound A-123]
1000 to 10000 | COc1nc(-c2cccc(-c3cccc(NC(=O)c4cn(C)c(=O)n(C)c4=O)c3C)c2Cl)cc2c1[C@H](NC[C@@H]1CCC(=O)N1)C(C)(C)C2 (single isomer, unassigned) [Compound A-124]
10 to 100 | COc1nc(-c2ccc(F)c(-c3cccc(NC(=O)c4cn(C)c(=O)n(C)c4=O)c3C)c2F)cc2c1[C@H](N1CC(O)C1)CC2 [Compound A-81]
10 to 100 | COc1nc(-c2cccc(-c3cccc(NC(=O)c4cn(C)c(=O)n(C)c4=O)c3C)c2Cl)cc2c1C(NCC(=O)O)CC2 [Compound D-12]
≤ 10 | COc1nc(-c2cccc(-c3cccc(NC(=O)c4cn(C)c(=O)n(C)c4=O)c3C)c2Cl)cc2c1[C@@H](N1CC3(CCC(=O)N3)C1)CC2 (single isomer, unassigned) [Compound A-139]
≤ 10 | COc1nc(-c2cccc(-c3cccc(NC(=O)c4cn(C)c(=O)n(C)c4=O)c3C)c2Cl)cc2c1[C@H](NC[C@@H]1CNC(=O)C1)CC2 (single isomer, unassigned) [Compound A-138]

same assay, conditions: co-culture 6 hrs at 37° C., NFAT-mediated luciferase activity

SMILES | EC50 [nM]
COc1nc(-c2ccc(F)c(-c3cccc(NC(=O)c4cn(C)c(=O)n(C)c4=O)c3C)c2F)cc2c1[C@H](N1CC(O)C1)CC2 [Compound A-82] | 10 to 100
